# According to US11413278B2, “Compounds and methods for promoting stress resistance” (priority 2015, dated 2022):
# Read-outs that look alike come from different tables or passages of the source.
# How the values were obtained:
# WI-38 cells = assay: Long-term effects on cell viability (5 days, ATP; morphology, PI imaging); assay type: cell-based; details: 10 μM;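 as to Luminescence signal for ATP measurement, day-2 Average: compounds at 10 µM with ATP read daily over 5 days of treatment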;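 as to Luminescence signal for ATP measurement, day-3 Average: compounds at 10 µM with ATP read daily over 5 days of treatment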;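 as to Luminescence signal for ATP measurement, day-4 Average: compounds at 10 µM with ATP read daily over 5 days of treatment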;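 as to Luminescence signal for ATP measurement, day-5 Average: compounds at 10 µM with ATP read daily over 5 days of treatment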
# NRF2 = assay: qPCR analysis of NRF2-regulated genes; assay type: cell-based, human; details: for fold induction at 10 µM: Homo sapiens
# How it was run: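 Expression of HMOX1, NQO1, GCLC and GSTM1 measured by qPCR relative to B2M, PPIA and GAPDH. Cells were WI-38 fibroblasts exposed 24 hrs to 10 μM compound, with RNA and cDNA prepared via Cells-to-Ct. Where stated, cells were first transfected 36 hrs with FOXO3 or NRF2 siRNA at 10 nM.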
# FOXO3 = FOXO3 siRNA knockdown: dependency for H2O2-resistance; assay type: cell-based, human
smiles,measurement,setting,value
CCc1ccccc1NC(=O)c1ccc([N+](=O)[O-])o1 [Gr-1C],"Luminescence signal for ATP measurement, day-1 Average","WI-38 cells; Batch 1, day-1, n = 6, day-0 luminescence = 320956 ± 24708",421913
same,"Luminescence signal for ATP measurement, day-2 Average","WI-38 cells; Batch 1, day-2, n = 6, day-0 luminescence = 320956 ± 24708",545683
same,"Luminescence signal for ATP measurement, day-3 Average","WI-38 cells; Batch 1, day-3, n = 6, day-0 luminescence = 320956 ± 24708",662368
same,"Luminescence signal for ATP measurement, day-4 Average","WI-38 cells; Batch 1, day-4, n = 6, day-0 luminescence = 320956 ± 24708",875881
same,"Luminescence signal for ATP measurement, day-5 Average","WI-38 cells; Batch 1, day-5, n = 6, day-0 luminescence = 320956 ± 24708",819655
same,viability at 10 µM,"WI-38 cells; Homo sapiens, WI-38, 120 h, Batch 1, day-5, DMSO ctrl = 100.0%, read-out: ATP luminescence by day-5 normalized",79.8%
same,O = Potential toxicity,"WI-38 cells; human, 5 days",1
same,Q = Potential toxicity,"WI-38 cells; human, 5 days",0
same,"Induction of at least two NRF2-regulated genes (HMOX1, NQO1, GCLC, GSTM1)","NRF2; 10 μM, 24 hrs, WI-38",could induce expression of at least two genes
same,F = Potential NRF2 Activation,NRF2; 2-point score,0
same,fold induction at 10 µM,"NRF2; 24 h, Assay 12(o), at 10 uM, qPCR, read-out: Induction of NRF2-regulated genes: GCLC normalized fold-change",1.65
same,fold induction at 10 µM,"NRF2; 24 h, Assay 12(o), at 10 uM, qPCR, read-out: Induction of NRF2-regulated genes: NQO1 normalized fold-change",1.33
same,fold induction at 10 µM,"NRF2; rounded fold change, WI-38 cells, 10 μM, 24 hrs (RP29 for Gr-4D), read-out: Summary of effects on NRF2-regulated genes: NQO1",1.46
same,fold induction at 10 µM,"NRF2; rounded fold change, WI-38 cells, 10 μM, 24 hrs, read-out: Summary of effects on NRF2-regulated genes: GCLC",1.82
same,fold induction at 10 µM,"NRF2; 10 μM, 24 hrs, WI-38 cells, qPCR, normalized to B2M, n = 4, read-out: GCLC expression, normalized fold change (NRF2-regulated gene)",1.82
same,fold induction at 10 µM,"NRF2; 10 μM, 24 hrs, WI-38 cells, qPCR, normalized to B2M, n = 4, read-out: NQO1 expression, normalized fold change (NRF2-regulated gene)",1.46
same,fold induction at 10 µM,"NRF2; WI-38 cells, 10 μM, 24 hrs, n=4, qPCR normalized by B2M, read-out: GCLC Normalized fold change",1.82
same,fold induction at 10 µM,"NRF2; WI-38 cells, 10 μM, 24 hrs, n=4, qPCR normalized by B2M, read-out: GSTM1 Normalized fold change",1.77
same,fold induction at 10 µM,"NRF2; WI-38 cells, 10 μM, 24 hrs, n=4, qPCR normalized by B2M, read-out: HMOX1 Normalized fold change",1.32
same,fold induction at 10 µM,"NRF2; WI-38 cells, 10 μM, 24 hrs, n=4, qPCR normalized by B2M, read-out: NQO1 Normalized fold change",1.46
same,F = Potential NRF2 Activation,NRF2; summary score,0
same,I = FOXO3-dependency for H2O2-resistance,FOXO3; score,0
same,I = FOXO3-dependency for H2O2-resistance,FOXO3; summary score,0
